The record followed here is the supplement of paper PMC10307832.

One test concerns NCI-H2009. Kind of test: relative viability (nuclei count vs DMSO), 5 days (fraction); higher = more cells survive. The conditions noted are these: first compound 2.53 µM. Summed up:
(§1)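 Dosing by pin tool came one day after lung cancer cell lines were seeded in 1536-well plates, using either one drug or a fixed anchor-drug dose plus five library-drug doses (not always all listed) in √10 steps. After 5 days, nuclei were counted on 4× images. Relative viability is treated-well nuclei count divided by vehicle-well nuclei count, and values are medians of duplicate plates.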
Consider `Nc1cccc2c1CN(C1CCC(=O)NC1=O)C2=O` (stereo not drawn) [Lenalidomide] + O=C(CCCCCCC(=O)Nc1ccccc1)NO [Vorinostat] (partner 1 µM), for which the relative viability was found to be 0.852.
In turn, `Nc1cccc2c1CN(C1CCC(=O)NC1=O)C2=O` (stereo not drawn) [Lenalidomide] + COc1cccc2cc(-c3nc([C@H]4CC[C@H](C(=O)O)CC4)n4ncnc(N)c34)[nH]c12 [OSI-027] (partner 0.5 µM) came in with a relative viability of 0.779.

The test is the same for the next values; noted with them: first compound 8 µM.
`Nc1cccc2c1CN(C1CCC(=O)NC1=O)C2=O` (stereo not drawn) [Lenalidomide] + Nc1ncn([C@H]2C[C@H](O)[C@@H](CO)O2)c(=O)n1 [Decitabine] (partner 2 µM) displayed a relative viability of 0.397.
On the same count and under the same terms, the figure for `Nc1cccc2c1CN(C1CCC(=O)NC1=O)C2=O` (stereo not drawn) [Lenalidomide] + N=C(N)NC(=N)NCCc1ccccc1 [Phenformin] (partner 250 µM) is 0.528; for `Nc1cccc2c1CN(C1CCC(=O)NC1=O)C2=O` (stereo not drawn) [Lenalidomide] + Nc1nc2[nH]cc(CCc3ccc(C(=O)N[C@@H](CCC(=O)O)C(=O)O)cc3)c2c(=O)[nH]1 [Pemetrexed] (partner 0.2 µM) it is 1.08; for `Nc1cccc2c1CN(C1CCC(=O)NC1=O)C2=O` (stereo not drawn) [Lenalidomide] + CC(=O)c1c(C)c2cnc(Nc3ccc(N4CCNCC4)cn3)nc2n(C2CCCC2)c1=O [Palbociclib] (partner 0.5 µM) it is 0.221.
Still for that read-out and setting: next, `Nc1cccc2c1CN(C1CCC(=O)NC1=O)C2=O` (stereo not drawn) [Lenalidomide] + O=C(CCCCCCC(=O)Nc1ccccc1)NO [Vorinostat] (partner 1 µM): 0.769; `Nc1cccc2c1CN(C1CCC(=O)NC1=O)C2=O` (stereo not drawn) [Lenalidomide] + COc1cccc2cc(-c3nc([C@H]4CC[C@H](C(=O)O)CC4)n4ncnc(N)c34)[nH]c12 [OSI-027] (partner 0.5 µM): 0.759.

In another test the test system is NCI-H2347. The description is as above. As to conditions: first compound 0.253 µM. Put shortly: as §1
In turn, `Nc1cccc2c1CN(C1CCC(=O)NC1=O)C2=O` (stereo not drawn) [Lenalidomide] + Nc1ncn([C@H]2C[C@H](O)[C@@H](CO)O2)c(=O)n1 [Decitabine] (partner 2 µM) came in with a relative viability of 0.616.
In turn, `Nc1cccc2c1CN(C1CCC(=O)NC1=O)C2=O` (stereo not drawn) [Lenalidomide] + N=C(N)NC(=N)NCCc1ccccc1 [Phenformin] (partner 250 µM) came in with a relative viability of 0.409.
The same measure, in the same setting: the figure for `Nc1cccc2c1CN(C1CCC(=O)NC1=O)C2=O` (stereo not drawn) [Lenalidomide] + Nc1nc2[nH]cc(CCc3ccc(C(=O)N[C@@H](CCC(=O)O)C(=O)O)cc3)c2c(=O)[nH]1 [Pemetrexed] (partner 0.2 µM) is 0.405; for `Nc1cccc2c1CN(C1CCC(=O)NC1=O)C2=O` (stereo not drawn) [Lenalidomide] + CC(=O)c1c(C)c2cnc(Nc3ccc(N4CCNCC4)cn3)nc2n(C2CCCC2)c1=O [Palbociclib] (partner 0.5 µM) it is 0.492.
On to `Nc1cccc2c1CN(C1CCC(=O)NC1=O)C2=O` (stereo not drawn) [Lenalidomide] + O=C(CCCCCCC(=O)Nc1ccccc1)NO [Vorinostat] (partner 1 µM), for which the relative viability stood at 0.701.
For the compound `Nc1cccc2c1CN(C1CCC(=O)NC1=O)C2=O` (stereo not drawn) [Lenalidomide] + COc1cccc2cc(-c3nc([C@H]4CC[C@H](C(=O)O)CC4)n4ncnc(N)c34)[nH]c12 [OSI-027] (partner 0.5 µM), the relative viability was 0.44.

The test is the same for the next values; noted with them: first compound 0.8 µM.
`Nc1cccc2c1CN(C1CCC(=O)NC1=O)C2=O` (stereo not drawn) [Lenalidomide] + Nc1ncn([C@H]2C[C@H](O)[C@@H](CO)O2)c(=O)n1 [Decitabine] (partner 2 µM) returned a relative viability of 0.617.
On to `Nc1cccc2c1CN(C1CCC(=O)NC1=O)C2=O` (stereo not drawn) [Lenalidomide] + N=C(N)NC(=N)NCCc1ccccc1 [Phenformin] (partner 250 µM), for which the relative viability turned out to be 0.488.
`Nc1cccc2c1CN(C1CCC(=O)NC1=O)C2=O` (stereo not drawn) [Lenalidomide] + Nc1nc2[nH]cc(CCc3ccc(C(=O)N[C@@H](CCC(=O)O)C(=O)O)cc3)c2c(=O)[nH]1 [Pemetrexed] (partner 0.2 µM): the relative viability came out at 0.435.
Same read-out and setting: the figure for `Nc1cccc2c1CN(C1CCC(=O)NC1=O)C2=O` (stereo not drawn) [Lenalidomide] + CC(=O)c1c(C)c2cnc(Nc3ccc(N4CCNCC4)cn3)nc2n(C2CCCC2)c1=O [Palbociclib] (partner 0.5 µM) is 0.446.
Regarding `Nc1cccc2c1CN(C1CCC(=O)NC1=O)C2=O` (stereo not drawn) [Lenalidomide] + O=C(CCCCCCC(=O)Nc1ccccc1)NO [Vorinostat] (partner 1 µM), the relative viability is 0.611.
On the same count and under the same terms, next, `Nc1cccc2c1CN(C1CCC(=O)NC1=O)C2=O` (stereo not drawn) [Lenalidomide] + COc1cccc2cc(-c3nc([C@H]4CC[C@H](C(=O)O)CC4)n4ncnc(N)c34)[nH]c12 [OSI-027] (partner 0.5 µM): 0.47.

Still in this test, the particulars now being: first compound 2.53 µM.
On to `Nc1cccc2c1CN(C1CCC(=O)NC1=O)C2=O` (stereo not drawn) [Lenalidomide] + Nc1ncn([C@H]2C[C@H](O)[C@@H](CO)O2)c(=O)n1 [Decitabine] (partner 2 µM), for which the relative viability worked out at 0.624.
Still for that read-out and setting: next, `Nc1cccc2c1CN(C1CCC(=O)NC1=O)C2=O` (stereo not drawn) [Lenalidomide] + N=C(N)NC(=N)NCCc1ccccc1 [Phenformin] (partner 250 µM): 0.497.
Compound `Nc1cccc2c1CN(C1CCC(=O)NC1=O)C2=O` (stereo not drawn) [Lenalidomide] + Nc1nc2[nH]cc(CCc3ccc(C(=O)N[C@@H](CCC(=O)O)C(=O)O)cc3)c2c(=O)[nH]1 [Pemetrexed] (partner 0.2 µM) came in with a relative viability of 0.415.
`Nc1cccc2c1CN(C1CCC(=O)NC1=O)C2=O` (stereo not drawn) [Lenalidomide] + CC(=O)c1c(C)c2cnc(Nc3ccc(N4CCNCC4)cn3)nc2n(C2CCCC2)c1=O [Palbociclib] (partner 0.5 µM) showed a relative viability of 0.494.
`Nc1cccc2c1CN(C1CCC(=O)NC1=O)C2=O` (stereo not drawn) [Lenalidomide] + O=C(CCCCCCC(=O)Nc1ccccc1)NO [Vorinostat] (partner 1 µM) gave a relative viability of 0.722.
Consider `Nc1cccc2c1CN(C1CCC(=O)NC1=O)C2=O` (stereo not drawn) [Lenalidomide] + COc1cccc2cc(-c3nc([C@H]4CC[C@H](C(=O)O)CC4)n4ncnc(N)c34)[nH]c12 [OSI-027] (partner 0.5 µM), for which the relative viability was 0.378.

Still in this test, the particulars now being: first compound 8 µM.
With `Nc1cccc2c1CN(C1CCC(=O)NC1=O)C2=O` (stereo not drawn) [Lenalidomide] + Nc1ncn([C@H]2C[C@H](O)[C@@H](CO)O2)c(=O)n1 [Decitabine] (partner 2 µM), the relative viability amounted to 0.566.
Same read-out and setting: the figure for `Nc1cccc2c1CN(C1CCC(=O)NC1=O)C2=O` (stereo not drawn) [Lenalidomide] + N=C(N)NC(=N)NCCc1ccccc1 [Phenformin] (partner 250 µM) is 0.206; for `Nc1cccc2c1CN(C1CCC(=O)NC1=O)C2=O` (stereo not drawn) [Lenalidomide] + Nc1nc2[nH]cc(CCc3ccc(C(=O)N[C@@H](CCC(=O)O)C(=O)O)cc3)c2c(=O)[nH]1 [Pemetrexed] (partner 0.2 µM) it is 0.431; for `Nc1cccc2c1CN(C1CCC(=O)NC1=O)C2=O` (stereo not drawn) [Lenalidomide] + CC(=O)c1c(C)c2cnc(Nc3ccc(N4CCNCC4)cn3)nc2n(C2CCCC2)c1=O [Palbociclib] (partner 0.5 µM) it is 0.424.
`Nc1cccc2c1CN(C1CCC(=O)NC1=O)C2=O` (stereo not drawn) [Lenalidomide] + O=C(CCCCCCC(=O)Nc1ccccc1)NO [Vorinostat] (partner 1 µM) returned a relative viability of 0.448.
As to `Nc1cccc2c1CN(C1CCC(=O)NC1=O)C2=O` (stereo not drawn) [Lenalidomide] + COc1cccc2cc(-c3nc([C@H]4CC[C@H](C(=O)O)CC4)n4ncnc(N)c34)[nH]c12 [OSI-027] (partner 0.5 µM), the relative viability came to 0.454.

For the next test, the system named is NCI-H358. The description is as above. As to conditions: first compound 0.253 µM. Summed up:
as §1
Compound `Nc1cccc2c1CN(C1CCC(=O)NC1=O)C2=O` (stereo not drawn) [Lenalidomide] + N=C(N)NC(=N)NCCc1ccccc1 [Phenformin] (partner 250 µM) registered a relative viability of 0.338.
